Data published in ChEMBL document CHEMBL1201862, “PubChem BioAssay data set” (2004).
Activity calls are given as the source filed them. The rule behind the calls is not given here.

Columns and labels:
[1] = target: T1, Microphthalmia-associated transcription factor (Homo sapiens, UniProt O75030); assay: TRPM1 promoter luciferase signal decrease, dose response, MITF inhibitor project, cell-based, SK-MEL-5, cherry-picked, set 3 (AID 493073); type: functional
T1 sequence (O75030 whole entry): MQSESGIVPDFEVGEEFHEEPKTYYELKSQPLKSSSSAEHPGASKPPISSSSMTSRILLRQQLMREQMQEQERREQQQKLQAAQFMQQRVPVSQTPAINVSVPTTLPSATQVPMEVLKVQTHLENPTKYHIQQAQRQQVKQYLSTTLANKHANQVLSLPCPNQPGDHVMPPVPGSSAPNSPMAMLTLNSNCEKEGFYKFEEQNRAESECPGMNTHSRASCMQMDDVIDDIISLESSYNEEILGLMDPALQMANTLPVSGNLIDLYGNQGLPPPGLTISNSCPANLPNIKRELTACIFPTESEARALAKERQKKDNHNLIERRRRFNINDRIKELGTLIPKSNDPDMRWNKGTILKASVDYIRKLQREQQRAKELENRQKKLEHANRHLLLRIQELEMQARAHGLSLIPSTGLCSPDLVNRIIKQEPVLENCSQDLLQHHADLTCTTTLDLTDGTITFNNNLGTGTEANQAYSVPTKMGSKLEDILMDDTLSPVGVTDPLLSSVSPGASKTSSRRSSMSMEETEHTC

[2] = target: T2, Rac GTPase-activating protein 1 (Homo sapiens, UniProt Q9H0H5); assay: MgcRacGAP GTPase-activating activity inhibitors, confirmation, biochemical, ADP Hunter fluorescence, primary and confirmatory (AID 624330); type: functional
T2 sequence (Q9H0H5 whole entry): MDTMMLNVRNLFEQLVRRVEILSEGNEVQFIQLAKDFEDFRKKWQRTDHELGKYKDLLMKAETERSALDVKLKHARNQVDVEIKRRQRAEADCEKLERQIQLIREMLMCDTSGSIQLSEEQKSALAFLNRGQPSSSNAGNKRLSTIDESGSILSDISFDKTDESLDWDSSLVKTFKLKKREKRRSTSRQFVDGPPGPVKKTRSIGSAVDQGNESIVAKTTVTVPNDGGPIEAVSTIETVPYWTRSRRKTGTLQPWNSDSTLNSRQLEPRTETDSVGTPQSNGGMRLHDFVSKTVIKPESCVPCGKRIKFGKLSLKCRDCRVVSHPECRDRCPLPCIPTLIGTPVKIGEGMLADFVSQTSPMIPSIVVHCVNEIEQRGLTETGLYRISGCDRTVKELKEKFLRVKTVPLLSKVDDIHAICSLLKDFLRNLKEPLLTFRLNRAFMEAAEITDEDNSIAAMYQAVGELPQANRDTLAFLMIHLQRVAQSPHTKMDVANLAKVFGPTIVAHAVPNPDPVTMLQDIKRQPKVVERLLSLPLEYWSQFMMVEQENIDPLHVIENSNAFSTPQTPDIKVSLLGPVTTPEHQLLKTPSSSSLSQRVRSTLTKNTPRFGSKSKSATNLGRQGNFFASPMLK

| IC50 [2] | Compound | AC50 [1] |
| --- | --- | --- |
|  | Cc1ccc(C)c(S(=O)(=O)N2CCN(Cc3ccc(O)c4ncccc34)CC2)c1 | 4.44 µM (active) |
| 57.1 µM (active) | Oc1ccc(/C=N\Nc2cc(N3CCOCC3)nc(N3CCOCC3)n2)c(O)c1 |  |
